From PubChem BioAssay (NCI)
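Cells were grown in 96-well plates and exposed to each compound for 48 hours at five concentrations; endpoints were interpolated linearly between bracketing concentrations, or set to the highest concentration if not reached. GI50: concentration for 50% inhibition of growth. TGI marks complete inhibition of growth.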

How the values were obtained:
Experiment in all cases: NCI-60 cell line screen, 48 h
MALME-3M melanoma = tested on: MALME-3M melanoma
HCC-2998 colon = tested on: HCC-2998 colon
HOP-92 NSCLC = tested on: HOP-92 NSCLC
HL-60(TB) leukemia = tested on: HL-60(TB) leukemia
OVCAR-8 ovarian = tested on: OVCAR-8 ovarian
SK-MEL-5 melanoma = tested on: SK-MEL-5 melanoma
UACC-62 melanoma = tested on: UACC-62 melanoma
UO-31 renal = tested on: UO-31 renal
KM12 colon = tested on: KM12 colon
EKVX NSCLC = tested on: EKVX NSCLC

Row | Compound | GI50 (MALME-3M melanoma) [µM] | TGI (MALME-3M melanoma) [µM] | GI50 (HCC-2998 colon) [µM] | TGI (HCC-2998 colon) [µM] | GI50 (HOP-92 NSCLC) [µM] | TGI (HOP-92 NSCLC) [µM] | GI50 (HL-60(TB) leukemia) [µM] | TGI (HL-60(TB) leukemia) [µM] | GI50 (OVCAR-8 ovarian) [µM] | TGI (OVCAR-8 ovarian) [µM] | GI50 (SK-MEL-5 melanoma) [µM] | TGI (SK-MEL-5 melanoma) [µM] | GI50 (UACC-62 melanoma) [µM] | TGI (UACC-62 melanoma) [µM] | GI50 (UO-31 renal) [µM] | TGI (UO-31 renal) [µM] | GI50 (KM12 colon) [µM] | TGI (KM12 colon) [µM] | GI50 (EKVX NSCLC) [µM] | TGI (EKVX NSCLC) [µM]
1 | NCCCCN(Cc1nc2ccccc2[nH]1)[C@H]1CCCc2cccnc21 | 13.2 | 28.2 | 16.9 | 38.2 | 2.12 | 27.1 | 5.34 | 26.7 | 20 | > 100 | 14.5 | 27.8 | 17.8 | 47.4 | 12 | > 72.7 | 15.5 | > 100 | 15.2 | > 100
2 | O=C(/C=C1/NC(=O)CS1)Nc1ccccc1 | – | > 100 | – | > 100 | – | > 100 | – | > 100 | – | > 100 | – | > 100 | – | > 100 | – | > 100 | – | > 100 | – | > 100
3 | O=C1c2c(nc3ccccc3c2-c2ccccc2)CN1Nc1ccccc1 | – | > 100 | – | > 100 | – | > 100 | – | > 100 | – | > 100 | – | > 100 | – | > 100 | – | > 100 | – | > 100 | – | > 100
